Data reported in patent US8163929B2, “Dihydropyridone amides as P2X7 modulators” (Roche Palo Alto LLC, priority 2008, dated 2012).

Target: T1, P2X7 (UniProt Q99572)
T1 sequence (Q99572 1-595): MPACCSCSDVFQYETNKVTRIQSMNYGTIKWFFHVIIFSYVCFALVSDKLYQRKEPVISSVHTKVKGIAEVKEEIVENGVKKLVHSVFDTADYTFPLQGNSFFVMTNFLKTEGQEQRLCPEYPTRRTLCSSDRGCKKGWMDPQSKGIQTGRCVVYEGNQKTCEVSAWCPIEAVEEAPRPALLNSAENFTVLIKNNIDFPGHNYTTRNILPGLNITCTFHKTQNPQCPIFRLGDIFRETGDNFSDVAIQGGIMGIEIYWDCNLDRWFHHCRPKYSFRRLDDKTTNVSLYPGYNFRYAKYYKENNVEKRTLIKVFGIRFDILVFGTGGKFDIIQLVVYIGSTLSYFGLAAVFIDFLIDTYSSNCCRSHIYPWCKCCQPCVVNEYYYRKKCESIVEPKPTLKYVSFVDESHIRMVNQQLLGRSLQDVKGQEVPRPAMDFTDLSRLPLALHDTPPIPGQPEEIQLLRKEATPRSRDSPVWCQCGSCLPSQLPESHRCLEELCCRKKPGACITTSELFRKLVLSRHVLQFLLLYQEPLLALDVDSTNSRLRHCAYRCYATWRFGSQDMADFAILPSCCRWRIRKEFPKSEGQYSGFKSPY
Assay: P2X7 activity of Table 1
Assay type: cell-based
Conditions: pIC50 values for P2X7
Outline: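 FLIPR calcium flux with fluo-3 in 1321N1 cells expressing human P2X7 and HEK293 cells expressing rat P2X7, in HBSS with 2 mM CaCl2 and 2.5 mM probenecid. Antagonist pre-incubated 20 min at room temperature, then BzATP added (100 μM human, 5 μM rat). Peak response over 5 min normalised to 5 μM ionomycin.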

SMILES	pIC50
COC[C@H](O)Cn1nccc(-c2ccc(C)c(NC(=O)C3=CN(C)C(=O)C[C@H]3c3ccc(F)cc3)c2)c1=O [Compound 105, (S)-4-(4-Fluoro-phenyl)-1-methyl-6-oxo-1,4,5,6-tetrahydro-pyridine-3-carboxylic acid {5-[2-((R)-2-hydroxy-3-methoxy-propyl)-3-oxo-2,3-dihydro-pyridazin-4-yl]-2-methyl-phenyl}-amide]	7.57
COC[C@H](O)Cn1nccc(-c2ccc(C)c(NC(=O)C3=CNC(=O)C[C@H]3c3ccc(F)cc3)c2)c1=O [Compound 106, (S)-4-(4-Fluoro-phenyl)-6-oxo-1,4,5,6-tetrahydro-pyridine-3-carboxylic acid {5-[2-((R)-2-hydroxy-3-methoxy-propyl)-3-oxo-2,3-dihydro-pyridazin-4-yl]-2-methyl-phenyl}-amide]	7.885
Cc1ccc(-n2ncc(=O)[nH]c2=O)cc1NC(=O)C1=CN(C)C(=O)C[C@H]1c1ccc(F)cc1 [Compound 107, (S)-4-(4-Fluoro-phenyl)-1-methyl-6-oxo-1,4,5,6-tetrahydro-pyridine-3-carboxylic acid [5-(3,5-dioxo-4,5-dihydro-3H-[1,2,4]triazin-2-yl)-2-methyl-phenyl]-amide]	6.81
Cc1ccc(-n2ncc(=O)[nH]c2=O)cc1NC(=O)C1=CN(C)C(=O)C[C@H]1c1cccc(F)c1 [Compound 108, (S)-4-(3-Fluoro-phenyl)-1-methyl-6-oxo-1,4,5,6-tetrahydro-pyridine-3-carboxylic acid [5-(3,5-dioxo-4,5-dihydro-3H-[1,2,4]triazin-2-yl)-2-methyl-phenyl]-amide]	7.145
Cc1ccc(-c2ccnn(C)c2=O)cc1NC(=O)C1=CNC(=O)C[C@H]1c1cccc(F)c1 [Compound 109, (S)-4-(3-Fluoro-phenyl)-6-oxo-1,4,5,6-tetrahydro-pyridine-3-carboxylic acid [2-methyl-5-(2-methyl-3-oxo-2,3-dihydro-pyridazin-4-yl)-phenyl]-amide]	8.045
Cc1ccc(-n2ncccc2=O)cc1NC(=O)C1=CN(C)C(=O)C[C@H]1c1ccc(F)cc1 [Compound 110, (S)-4-(4-Fluoro-phenyl)-1-methyl-6-oxo-1,4,5,6-tetrahydro-pyridine-3-carboxylic acid [2-methyl-5-(6-oxo-6H-pyridazin-1-yl)-phenyl]-amide]	7.17
Cc1ccc(-c2cc(C(F)(F)F)n(CCO)n2)cc1NC(=O)C1=CN(C)C(=O)C[C@H]1c1cccc(F)c1 [Compound 111, (S)-4-(3-Fluoro-phenyl)-1-methyl-6-oxo-1,4,5,6-tetrahydro-pyridine-3-carboxylic acid {5-[1-(2-hydroxy-ethyl)-5-trifluoromethyl-1H-pyrazol-3-yl]-2-methyl-phenyl}-amide]	6.895
Cc1ccc(-c2ccn(CCO)n2)cc1NC(=O)C1=CN(C)C(=O)C[C@H]1c1cccc(F)c1 [Compound 112, (S)-4-(3-Fluoro-phenyl)-1-methyl-6-oxo-1,4,5,6-tetrahydro-pyridine-3-carboxylic acid {5-[1-(2-hydroxy-ethyl)-1H-pyrazol-3-yl]-2-methyl-phenyl}-amide]	7.645
Cc1cc(-c2ccc(Cl)c(NC(=O)C3=CN(C)C(=O)C[C@H]3c3ccc(F)cc3)c2)nn1CCO [Compound 115, (S)-4-(4-Fluoro-phenyl)-1-methyl-6-oxo-1,4,5,6-tetrahydro-pyridine-3-carboxylic acid {2-chloro-5-[1-(2-hydroxy-ethyl)-5-methyl-1H-pyrazol-3-yl]-phenyl}-amide]	7.04
Cc1ccc(-c2ccc[nH]c2=O)cc1NC(=O)C1=CN(C)C(=O)C[C@H]1c1ccc(F)cc1 [Compound 116, (S)-4-(4-Fluoro-phenyl)-1-methyl-6-oxo-1,4,5,6-tetrahydro-pyridine-3-carboxylic acid [2-methyl-5-(2-oxo-1,2-dihydro-pyridin-3-yl)-phenyl]-amide]	7.565
COc1ccc(-c2ccc(C)c(NC(=O)C3=CN(C)C(=O)C[C@H]3c3ccc(F)cc3)c2)nn1 [Compound 117, (S)-4-(4-Fluoro-phenyl)-1-methyl-6-oxo-1,4,5,6-tetrahydro-pyridine-3-carboxylic acid [5-(6-methoxy-pyridazin-3-yl)-2-methyl-phenyl]-amide]	7.22
Cc1ccc(-c2ccc(=O)[nH]n2)cc1NC(=O)C1=CN(C)C(=O)C[C@H]1c1ccc(F)cc1 [Compound 118, (S)-4-(4-Fluoro-phenyl)-1-methyl-6-oxo-1,4,5,6-tetrahydro-pyridine-3-carboxylic acid [2-methyl-5-(6-oxo-1,6-dihydro-pyridazin-3-yl)-phenyl]-amide]	6.585
Cc1ccc(-c2cc(C)n(CC(=O)NCCN(C)C)n2)cc1NC(=O)C1=CNC(=O)C[C@H]1c1ccc(F)cc1 [Compound 119, (S)-4-(4-Fluoro-phenyl)-6-oxo-1,4,5,6-tetrahydro-pyridine-3-carboxylic acid (5-{1-[(2-dimethylamino-ethylcarbamoyl)-methyl]-5-methyl-1H-pyrazol-3-yl}-2-methyl-phenyl)-amide]	7.685
Cc1ccc(-c2cccn(C)c2=O)cc1NC(=O)C1=CN(C)C(=O)C[C@H]1c1ccc(F)cc1 [Compound 120, (S)-4-(4-Fluoro-phenyl)-1-methyl-6-oxo-1,4,5,6-tetrahydro-pyridine-3-carboxylic acid [2-methyl-5-(1-methyl-2-oxo-1,2-dihydro-pyridin-3-yl)-phenyl]-amide]	7.855
Cc1ccc(-c2ccc(=O)n(CCO)n2)cc1NC(=O)C1=CNC(=O)C[C@H]1c1ccc(F)cc1 [Compound 121, (S)-4-(4-Fluoro-phenyl)-6-oxo-1,4,5,6-tetrahydro-pyridine-3-carboxylic acid {5-[1-(2-hydroxy-ethyl)-6-oxo-1,6-dihydro-pyridazin-3-yl]-2-methyl-phenyl}-amide]	7.385
Cc1ccc(=O)n(-c2ccc(C)c(NC(=O)C3=CNC(=O)C[C@H]3c3ccc(F)cc3)c2)c1 [Compound 122, (S)-4-(4-Fluoro-phenyl)-6-oxo-1,4,5,6-tetrahydro-pyridine-3-carboxylic acid [2-methyl-5-(5-methyl-2-oxo-2H-pyridin-1-yl)-phenyl]-amide]	8.26
CN1C=C(C(=O)Nc2cc(-c3ccn[nH]c3=O)ccc2F)[C@H](c2ccc(F)cc2)CC1=O [Compound 123, (S)-4-(4-Fluoro-phenyl)-1-methyl-6-oxo-1,4,5,6-tetrahydro-pyridine-3-carboxylic acid [2-fluoro-5-(3-oxo-2,3-dihydro-pyridazin-4-yl)-phenyl]-amide]	7.58
Cc1ccc(-n2ccc(=O)[nH]c2=O)cc1NC(=O)C1=CN(C)C(=O)C[C@H]1c1ccc(F)cc1 [Compound 124, (S)-4-(4-Fluoro-phenyl)-1-methyl-6-oxo-1,4,5,6-tetrahydro-pyridine-3-carboxylic acid [5-(2,4-dioxo-3,4-dihydro-2H-pyrimidin-1-yl)-2-methyl-phenyl]-amide]	6.44
Cc1cc(Cl)c(-n2ncccc2=O)cc1NC(=O)C1=CNC(=O)C[C@H]1c1ccc(F)cc1 [Compound 125, (S)-4-(4-Fluoro-phenyl)-6-oxo-1,4,5,6-tetrahydro-pyridine-3-carboxylic acid [4-chloro-2-methyl-5-(6-oxo-6H-pyridazin-1-yl)-phenyl]-amide]	7.606
COC[C@H](O)Cn1nc(-c2ccc(C)c(NC(=O)C3=CN(C)C(=O)C[C@H]3c3ccc(F)cc3)c2)ccc1=O [Compound 126, (S)-4-(4-Fluoro-phenyl)-1-methyl-6-oxo-1,4,5,6-tetrahydro-pyridine-3-carboxylic acid {5-[1-((R)-2-hydroxy-3-methoxy-propyl)-6-oxo-1,6-dihydro-pyridazin-3-yl]-2-methyl-phenyl}-amide]	7.615
Cc1cc(Cl)c(-c2ccnn(C)c2=O)cc1NC(=O)C1=CNC(=O)C[C@H]1c1ccc(F)cc1 [Compound 127, (S)-4-(4-Fluoro-phenyl)-6-oxo-1,4,5,6-tetrahydro-pyridine-3-carboxylic acid [4-chloro-2-methyl-5-(2-methyl-3-oxo-2,3-dihydro-pyridazin-4-yl)-phenyl]-amide]	7.843
Cc1ccc(-c2ccnn(C)c2=O)cc1NC(=O)C1=CN(CC(=O)N(C)C)C(=O)C[C@H]1c1ccc(F)cc1 [Compound 128, (S)-1-Dimethylcarbamoylmethyl-4-(4-fluoro-phenyl)-6-oxo-1,4,5,6-tetrahydro-pyridine-3-carboxylic acid [2-methyl-5-(2-methyl-3-oxo-2,3-dihydro-pyridazin-4-yl)-phenyl]-amide]	7.195
Cc1ccc(-n2cc(C)c(=O)[nH]c2=O)cc1NC(=O)C1=CN(C)C(=O)C[C@H]1c1ccc(F)cc1 [Compound 129, (S)-4-(4-Fluoro-phenyl)-1-methyl-6-oxo-1,4,5,6-tetrahydro-pyridine-3-carboxylic acid [2-methyl-5-(5-methyl-2,4-dioxo-3,4-dihydro-2H-pyrimidin-1-yl)-phenyl]-amide]	7.945
